The target in assay [1] is T1, MC4 (Homo sapiens, UniProt P32245).
T1 construct: purchased Perkin Elmer BioSignal; host or cells: HEK 293
Kind of assay: GPCR radioligand binding (RLB) assay, melanocortin MC4, [125I]NDP-αMSH. The method, boiled down: (§1)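 Membranes from HEK 293 cells expressing the recombinant human receptor were equilibrated with [125I]SST-14 (SST5) or [125I]NDP-αMSH (MC4), then compound added for an optimized incubation. Bound ligand separated by filtration on PEI-coated glass fiber and counted by liquid scintillation.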

For assay [2], the target named is T2, SST5 (Homo sapiens, UniProt P35346).
T2 construct: purchased Perkin Elmer BioSignal; host or cells: HEK 293
T2 sequence (P35346 whole entry): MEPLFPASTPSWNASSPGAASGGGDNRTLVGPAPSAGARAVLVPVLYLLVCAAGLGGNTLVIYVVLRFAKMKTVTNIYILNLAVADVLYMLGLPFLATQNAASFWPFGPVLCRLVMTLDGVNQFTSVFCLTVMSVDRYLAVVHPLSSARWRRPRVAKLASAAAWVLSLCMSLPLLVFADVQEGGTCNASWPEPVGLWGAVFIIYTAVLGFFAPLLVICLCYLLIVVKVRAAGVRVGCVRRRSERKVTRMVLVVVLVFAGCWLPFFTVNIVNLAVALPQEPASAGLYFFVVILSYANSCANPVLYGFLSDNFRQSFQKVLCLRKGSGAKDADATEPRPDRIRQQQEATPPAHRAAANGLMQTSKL
Kind of assay: GPCR radioligand binding (RLB) assay, somatostatin SST5, [125I]SST-14. To be noted: for SST5 inhibition at 10 micromolar: 10 micromolar compound, recombinant human receptor membranes (HEK 293); for SSTS inhibition at 10 micromolar: Example Library 4. In a few lines: as §1

[3] abbreviates: 10 micromolar compound, recombinant human receptor membranes (HEK 293).
The mark [4] stands for this setting: 10 micromolar, Example Library 4.

T1 sequence (P32245 whole entry): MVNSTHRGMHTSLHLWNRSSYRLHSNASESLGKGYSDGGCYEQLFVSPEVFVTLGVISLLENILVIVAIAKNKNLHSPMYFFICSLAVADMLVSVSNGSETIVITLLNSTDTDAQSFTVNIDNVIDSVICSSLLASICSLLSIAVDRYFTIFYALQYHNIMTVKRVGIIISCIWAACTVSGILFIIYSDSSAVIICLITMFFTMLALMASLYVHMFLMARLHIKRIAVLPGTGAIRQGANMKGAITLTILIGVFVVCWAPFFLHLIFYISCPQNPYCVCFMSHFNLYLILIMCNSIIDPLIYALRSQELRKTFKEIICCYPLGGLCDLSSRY

With `CSC1OC(COCc2ccc3ccccc3c2)C(O)C(OCc2ccc3ccccc3c2)C1NC(=O)CCN` (stereo not shown) [Compound 211], the “MC4 inhibition at 10 micromolar” value in assay [1] (setting [3]) is recorded as “+ (Indicates inhibition greater than . . . 50%)”. In addition, the “SST5 inhibition at 10 micromolar” value in assay [2] was “+ (Indicates inhibition greater than . . . 50%)”.
Take `CSC1OC(COCc2ccc3ccccc3c2)C(O)C(OCc2ccc3ccccc3c2)C1NC(=O)CCNC(=N)N` (stereo not shown) [Compound 212]: the “MC4 inhibition at 10 micromolar” value in assay [1] (setting [3]) is “+ (Indicates inhibition greater than . . . 50%)”. Further, the “SST5 inhibition at 10 micromolar” value in assay [2] is reported as “+ (Indicates inhibition greater than . . . 50%)”.
Turning to `COCC1OC(OCc2ccccc2)C(NC(=O)CNC(=N)N)C(OCc2ccccc2)C1O` (stereo not shown) [Compound 214], the “MC4 inhibition at 10 micromolar” value in assay [1] (setting [4]) is on record as “+ (Indicates inhibition greater than . . . 50%)”. Further, the “SSTS inhibition at 10 micromolar” value in assay [2] is “+ (Indicates inhibition greater than . . . 50%)”.
On to `COCC1OC(OCc2ccccc2)C(NC(=O)CCNC(=N)N)C(OCc2ccccc2)C1O` (stereo not shown) [Compound 216], for which, in assay [1] (setting [4]), the “MC4 inhibition at 10 micromolar” value is given as “+ (Indicates inhibition greater than . . . 50%)”. Also, in assay [2], the “SSTS inhibition at 10 micromolar” value is given as “+ (Indicates inhibition greater than . . . 50%)”.
`COCC1OC(OCc2ccccc2)C(NC(=O)CCCNC(=N)N)C(OCc2ccccc2)C1O` (stereo not shown) [Compound 218]: the “MC4 inhibition at 10 micromolar” value in assay [1] (setting [4]) is reported as “+ (Indicates inhibition greater than . . . 50%)”. Besides, the “SSTS inhibition at 10 micromolar” value in assay [2] is “+ (Indicates inhibition greater than . . . 50%)”.
Take `COCC1OC(OCc2ccccc2)C(NC(=O)CN)C(OCc2ccc(Cl)cc2)C1O` (stereo not shown) [Compound 219]: in assay [1] (setting [4]), the “MC4 inhibition at 10 micromolar” value was “+ (Indicates inhibition greater than . . . 50%)”. The “SSTS inhibition at 10 micromolar” value in assay [2] was “+ (Indicates inhibition greater than . . . 50%)”.
Take `COCC1OC(OCc2ccccc2)C(NC(=O)CNC(=N)N)C(OCc2ccc(Cl)cc2)C1O` (stereo not shown) [Compound 220]: the “MC4 inhibition at 10 micromolar” value in assay [1] (setting [4]) is recorded as “+ (Indicates inhibition greater than . . . 50%)”. In addition, in assay [2], the “SSTS inhibition at 10 micromolar” value was “+ (Indicates inhibition greater than . . . 50%)”.
Consider `COCC1OC(OCc2ccccc2)C(NC(=O)CCN)C(OCc2ccc(Cl)cc2)C1O` (stereo not shown) [Compound 221], for which, in assay [1] (setting [4]), the “MC4 inhibition at 10 micromolar” value is recorded as “+ (Indicates inhibition greater than . . . 50%)”. In addition, the “SSTS inhibition at 10 micromolar” value in assay [2] was “+ (Indicates inhibition greater than . . . 50%)”.
Consider `COCC1OC(OCc2ccccc2)C(NC(=O)CCNC(=N)N)C(OCc2ccc(Cl)cc2)C1O` (stereo not shown) [Compound 222], for which the “MC4 inhibition at 10 micromolar” value in assay [1] (setting [4]) is recorded as “+ (Indicates inhibition greater than . . . 50%)”. Moreover, the “SSTS inhibition at 10 micromolar” value in assay [2] is recorded as “+ (Indicates inhibition greater than . . . 50%)”.
As to `COCC1OC(OCc2ccccc2)C(NC(=O)CCCN)C(OCc2ccc(Cl)cc2)C1O` (stereo not shown) [Compound 223], the “MC4 inhibition at 10 micromolar” value in assay [1] (setting [4]) is reported as “+ (Indicates inhibition greater than . . . 50%)”. The “SSTS inhibition at 10 micromolar” value in assay [2] is given as “+ (Indicates inhibition greater than . . . 50%)”.
With `COCC1OC(OCc2ccccc2)C(NC(=O)CCCNC(=N)N)C(OCc2ccc(Cl)cc2)C1O` (stereo not shown) [Compound 224], the “MC4 inhibition at 10 micromolar” value in assay [1] (setting [4]) is listed as “+ (Indicates inhibition greater than . . . 50%)”. In assay [2], the “SSTS inhibition at 10 micromolar” value is “+ (Indicates inhibition greater than . . . 50%)”.
Consider `COCC1OC(OCc2ccccc2)C(NC(=O)CN)C(OCc2ccc(-c3ccccc3)cc2)C1O` (stereo not shown) [Compound 225], for which the “MC4 inhibition at 10 micromolar” value in assay [1] (setting [4]) is “+ (Indicates inhibition greater than . . . 50%)”. Besides, the “SSTS inhibition at 10 micromolar” value in assay [2] is listed as “+ (Indicates inhibition greater than . . . 50%)”.
As for `COCC1OC(OCc2ccccc2)C(NC(=O)CNC(=N)N)C(OCc2ccc(-c3ccccc3)cc2)C1O` (stereo not shown) [Compound 226], the “MC4 inhibition at 10 micromolar” value in assay [1] (setting [4]) is “+ (Indicates inhibition greater than . . . 50%)”. The “SSTS inhibition at 10 micromolar” value in assay [2] was “+ (Indicates inhibition greater than . . . 50%)”.
As to `COCC1OC(OCc2ccccc2)C(NC(=O)CCN)C(OCc2ccc(-c3ccccc3)cc2)C1O` (stereo not shown) [Compound 227], the “MC4 inhibition at 10 micromolar” value in assay [1] (setting [4]) was “+ (Indicates inhibition greater than . . . 50%)”. The “SSTS inhibition at 10 micromolar” value in assay [2] is on record as “+ (Indicates inhibition greater than . . . 50%)”.
As to `COCC1OC(OCc2ccccc2)C(NC(=O)CCNC(=N)N)C(OCc2ccc(-c3ccccc3)cc2)C1O` (stereo not shown) [Compound 228], the “MC4 inhibition at 10 micromolar” value in assay [1] (setting [4]) was “+ (Indicates inhibition greater than . . . 50%)”. Also, the “SSTS inhibition at 10 micromolar” value in assay [2] was “+ (Indicates inhibition greater than . . . 50%)”.
In the case of `COCC1OC(OCc2ccccc2)C(NC(=O)CCCN)C(OCc2ccc(-c3ccccc3)cc2)C1O` (stereo not shown) [Compound 229], the “MC4 inhibition at 10 micromolar” value in assay [1] (setting [4]) is “+ (Indicates inhibition greater than . . . 50%)”. In addition, in assay [2], the “SSTS inhibition at 10 micromolar” value is “+ (Indicates inhibition greater than . . . 50%)”.
As for `COCC1OC(OCc2ccccc2)C(NC(=O)CCCNC(=N)N)C(OCc2ccc(-c3ccccc3)cc2)C1O` (stereo not shown) [Compound 230], the “MC4 inhibition at 10 micromolar” value in assay [1] (setting [4]) is “+ (Indicates inhibition greater than . . . 50%)”. Moreover, the “SSTS inhibition at 10 micromolar” value in assay [2] is “+ (Indicates inhibition greater than . . . 50%)”.
Regarding `COCC1OC(OCc2ccccc2)C(NC(=O)CNC(=N)N)C(OCc2ccc3ccccc3c2)C1O` (stereo not shown) [Compound 232], the “MC4 inhibition at 10 micromolar” value in assay [1] (setting [4]) is given as “+ (Indicates inhibition greater than . . . 50%)”. Further, the “SSTS inhibition at 10 micromolar” value in assay [2] was “+ (Indicates inhibition greater than . . . 50%)”.
With `COCC1OC(OCc2ccccc2)C(NC(=O)CCN)C(OCc2ccc3ccccc3c2)C1O` (stereo not shown) [Compound 233], in assay [1] (setting [4]), the “MC4 inhibition at 10 micromolar” value was “+ (Indicates inhibition greater than . . . 50%)”. The “SSTS inhibition at 10 micromolar” value in assay [2] was “+ (Indicates inhibition greater than . . . 50%)”.
Take `COCC1OC(OCc2ccccc2)C(NC(=O)CCNC(=N)N)C(OCc2ccc3ccccc3c2)C1O` (stereo not shown) [Compound 234]: the “MC4 inhibition at 10 micromolar” value in assay [1] (setting [4]) is given as “+ (Indicates inhibition greater than . . . 50%)”. In assay [2], the “SSTS inhibition at 10 micromolar” value is listed as “+ (Indicates inhibition greater than . . . 50%)”.
In the case of `COCC1OC(OCc2ccccc2)C(NC(=O)CCCN)C(OCc2ccc3ccccc3c2)C1O` (stereo not shown) [Compound 235], the “MC4 inhibition at 10 micromolar” value in assay [1] (setting [4]) is “+ (Indicates inhibition greater than . . . 50%)”. For the same compound, the “SSTS inhibition at 10 micromolar” value in assay [2] is reported as “+ (Indicates inhibition greater than . . . 50%)”.
Take `COCC1OC(OCc2ccccc2)C(NC(=O)CCCNC(=N)N)C(OCc2ccc3ccccc3c2)C1O` (stereo not shown) [Compound 236]: the “MC4 inhibition at 10 micromolar” value in assay [1] (setting [4]) is “+ (Indicates inhibition greater than . . . 50%)”. In assay [2], the “SSTS inhibition at 10 micromolar” value is reported as “+ (Indicates inhibition greater than . . . 50%)”.
On to `COCC1OC(OCc2ccc(Cl)cc2)C(NC(=O)CNC(=N)N)C(OCc2ccccc2)C1O` (stereo not shown) [Compound 237], for which the “MC4 inhibition at 10 micromolar” value in assay [1] (setting [4]) is on record as “+ (Indicates inhibition greater than . . . 50%)”. Moreover, in assay [2], the “SSTS inhibition at 10 micromolar” value is recorded as “+ (Indicates inhibition greater than . . . 50%)”.
As to `COCC1OC(OCc2ccc(Cl)cc2)C(NC(=O)CCNC(=N)N)C(OCc2ccccc2)C1O` (stereo not shown) [Compound 239], the “MC4 inhibition at 10 micromolar” value in assay [1] (setting [4]) was “+ (Indicates inhibition greater than . . . 50%)”. For the same compound, the “SSTS inhibition at 10 micromolar” value in assay [2] is “+ (Indicates inhibition greater than . . . 50%)”.
For the compound `COCC1OC(OCc2ccc(Cl)cc2)C(NC(=O)CCCNC(=N)N)C(OCc2ccccc2)C1O` (stereo not shown) [Compound 241], the “MC4 inhibition at 10 micromolar” value in assay [1] (setting [4]) is listed as “+ (Indicates inhibition greater than . . . 50%)”. Further, the “SSTS inhibition at 10 micromolar” value in assay [2] was “+ (Indicates inhibition greater than . . . 50%)”.
For the compound `COCC1OC(OCc2ccc(Cl)cc2)C(NC(=O)CN)C(OCc2ccc(Cl)cc2)C1O` (stereo not shown) [Compound 242], in assay [1] (setting [4]), the “MC4 inhibition at 10 micromolar” value was “+ (Indicates inhibition greater than . . . 50%)”. The “SSTS inhibition at 10 micromolar” value in assay [2] was “+ (Indicates inhibition greater than . . . 50%)”.

Values taken from US7994140B2, “Classes of compounds that interact with GPCRs” (Alchemia Limited, priority 2002, dated 2011).
